Read-outs that look alike come from different tables or passages of the source.
Key:
hPARG = target: T1, hPARG (Homo sapiens, UniProt Q86W56, A967T/C963S/D927K/H446G/I916T/L447S/L473S/M841I/N479S/R811K/S802A/S858P/T924D); test: PARG enzymatic IC50 assay (absorbance, ADP-ribose-pNP substrate); type: biochemical; conditions: 2 hours incubation of enzyme with compound; 30 nM hPARG, 800 μM ADP-pNP; read-out: IC50 in μM determined in PARG enzymatic assay (PARG protein and 2 hours incubation)
T1 construct: human PARG (448-976 [H446G, L447S, L473S, N479S); 6His-TwinStrep (protease-cleavable) (N, cleaved yes); host or cells: E. coli BL21 (DE3)
T1 sequence (Q86W56 446-976 H446G/L447S/L473S/N479S/S802A/R811K/M841I/S858P/I916T/T924D/D927K/C963S/A967T): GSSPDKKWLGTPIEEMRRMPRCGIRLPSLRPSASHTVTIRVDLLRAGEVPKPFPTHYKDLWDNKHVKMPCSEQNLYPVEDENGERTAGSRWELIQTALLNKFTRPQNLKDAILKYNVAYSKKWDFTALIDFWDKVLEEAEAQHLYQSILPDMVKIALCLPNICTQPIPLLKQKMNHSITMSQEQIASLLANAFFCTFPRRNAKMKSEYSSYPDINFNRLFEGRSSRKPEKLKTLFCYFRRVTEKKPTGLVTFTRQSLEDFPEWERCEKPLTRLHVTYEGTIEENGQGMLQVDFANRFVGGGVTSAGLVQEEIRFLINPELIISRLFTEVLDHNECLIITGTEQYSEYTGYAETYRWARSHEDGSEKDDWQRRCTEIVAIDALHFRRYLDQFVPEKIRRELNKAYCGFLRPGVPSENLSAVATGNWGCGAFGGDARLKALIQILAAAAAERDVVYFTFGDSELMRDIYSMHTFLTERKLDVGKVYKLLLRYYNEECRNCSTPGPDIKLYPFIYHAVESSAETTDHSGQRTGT
Experimental: A codon optimized gene encoding human PARG (448-976 [H446G, L447S, L473S, N479S, S802A, R811K, M841I, S858P, 1916T, T924D, D927K, C963S, A967T]) was synthesized by Genscript, and cloned into pET15b (Ncol/BamHI) with an N-terminal, Thrombin protease cleavable 6His-TwinStrep tag. Expression of the protein in E. coli BL21 (DE3) was induced by addition of 0.2 mM IPTG to a shake flask culture grown to OD600=0.8 at 37° C. Growth was allowed to continue at 30° C. for a further 20 hours before harvesting by centrifugation and storage of the cell pellet at −80° C.
Protein was purified by IMAC and SEC: frozen cell pellets (typically 40 g wet weight) were resuspended by homogenization in 5 volumes buffer A (25 mM Tris/HCl pH 8.0, 200 mM NaCl, 2 mM DTT), supplemented with 1 mg of DNase I from bovine pancreas (Sigma-Aldrich) and protease inhibitors (Roche Complete™ EDTA-free protease inhibitor tablet), and lysed by passage through a Constant Systems BasicZ homogenizer. The lysate was clarified by centrifugation for 60 minutes at 25,000 g, 4° C., and the lysate supernatant was loaded onto 5 ml StrepTrap HP (Cytiva) pre-equilibrated with buffer A. The column was washed with buffer A (˜10 CV), then buffer B containing 1M KCl (˜5 CV), and then the protein was eluted with buffer A containing 2.5 mM d-Desthiobiotin. Pooled fractions containing 6HisTwinStrep-TEV-hPARG were incubated with TEV protease overnight at 4° C. hPARG was separated from uncleaved material and Thrombin protease through gel filtration with Superdex75 sizing column (GE Healthcare) pre-equilibrated with SEC buffer (15 mM Tris/HCl pH 8.5, 100 mM NaCl, 2 mM DTT). Pooled fractions containing pure hPARG were concentrated using a 10 k MWCO spin concentrator (VivaSpin) to 10 mg/mL, and then either used immediately for crystallisation or snap-frozen in liquid nitrogen for storage at −80° C.
PARG Enzymatic IC50 Assay
PARG enzyme as incubated with compound or vehicle (DMSO) for 15 minutes or 2 hours in a 384 well plate. After adding the PARG substrate ADP-ribose-pNP, the plate was read for absorbance intensity at 405 nm. The vehicle (DMSO) with high absorbance intensity represents no inhibition of enzymatic reaction while the low control (no enzyme) with low absorbance intensity represents full inhibition of enzymatic reaction.
• hPARG: Peak Protein, 30 nM • Substrate: ADP-pNP, 800 μM, Jena Bioscience catalog #NU-955 • Reaction time: 60 minutes • Assay buffer: 50 mM Tris-HCl pH 8.0, 100 mM NaCl, 2 mM DTT • Temperature: 30° C. • Total volume: 30 μL
• 0% inhibition control: DMSO • 100% inhibition control: No enzyme
The protocol that was used for enzyme reaction and detection is as follows: • 1. Transfer 100 nL of the final concentration of test compounds or vehicle (DMSO) to the appropriate wells of a microtiter plate. • 2. Centrifuge the plate at 1000 rpm for 1 minute. • 3. Transfer 14.6 μL of 2× final concentration of enzyme in assay buffer or assay buffer alone to the appropriate wells. • 4. Centrifuge the plate at 1000 rpm for 1 minute. • 5. Incubate the plate at room temperature for 15 minutes or 2 hours. • 6. Transfer 15.4 μL of 2× substrate in assay buffer to all the test wells. • 7. Centrifuge the plate at 1000 rpm for 1 minute. • 8. Read the plate on a plate reader (e.g., Spark Tecan).

PARG in U2OS cells = test: Cellular PAR chain assay (flow cytometry, PAR chain positive cells); type: cell-based; conditions: 1 hour compound pretreatment
Experimental: The ability of compounds to inhibit PARG in response to DNA damage, was assessed with U2OS cells pretreated with the compounds for 1 hour, following a 1-hour treatment with or without the DNA alkylating agent temozolomide (TMZ). […] The cells were incubated for 2 hours at room temperature with a mouse monoclonal antibody against poly (ADP) ribose (PAR) polymer. The cells were washed and incubated with an anti-mouse Alexa-488 conjugated secondary antibody for 1 hour at room temperature. Propidium iodide staining was used to determine DNA content in the cells (staining at 4° C. overnight). The fluorescence intensity of the cells was assessed by flow cytometry (Cytoflex from Beckmann) and the percentage of PAR chain positive cells (gated in relation to TMZ+DMSO treated control) was determined. PAR chain positive cells % were fit against the concentration of the compound using a 4 parameter log-logistic function, generating PAR chain EC50 values: […]

NCIH-460 cells = test: Cellular viability assay (Cell Titer-Glo), NCIH-460; type: cell-based; conditions: Homo sapiens, NCI-H460; NCIH-460 (PARG-inhibition sensitive), 96 hours of incubation; read-out: EC50 in μM determined in NCIH-460 cells as described under Cellular viability assay
Experimental: (§1) NCIH-460 as a PARG-inhibition sensitive cell line and U2OS as PARG-inhibition insensitive cell line were plated at 1000 cells/well and 2000 cells/well, respectively, in 96-well white plates with clear flat bottom. After 24 hours, the compounds were added with the Tecan digital dispenser (D300e), in duplicates. The outer wells of the plate were excluded. After 96 hours of incubation, 150 μl of the growth medium were removed and 50 μl of Cell Titer-Glo (Promega) were added per well. Following an incubation of 10 minutes, luminescence was read using a plate reader (Tecan). Averaged values of the samples were normalized to DMSO treated control samples. Curves were fit as % of the control vs. log of the compound concentration using a 4 parameter log-logistic function: […]

U2OS cells = test: Cellular viability assay (Cell Titer-Glo), U2OS; type: cell-based; conditions: Homo sapiens; U2OS (PARG-inhibition insensitive), 96 hours of incubation; read-out: EC50 in μM determined in U2OS cells as described under Cellular viability assay
Experimental: as §1

[1] = without TMZ, read-out: EC50 in μM determined in cellular assay as described under Cellular PAR chain assay (conditions without treatment of TMZ)
[2] = Homo sapiens, then 1-hour treatment with TMZ, read-out: EC50 in μM determined in cellular assay as described under Cellular PAR chain assay (conditions with treatment of TMZ)

Row | Structure (SMILES) | IC50 (hPARG) | EC50 (PARG in U2OS cells; [1]) | EC50 (PARG in U2OS cells; [2]) | EC50 (NCIH-460 cells) | EC50 (U2OS cells)
1 | Cc1ccc(-c2ncn3c(N4CCN(C(=O)N(C)C)CC4)cc(S(=O)(=O)NC4(C)CC4)cc23)cn1 [Example 1, N,N-dimethyl-4-(7-(N-(1-methylcyclopropyl)sulfamoyl)-1-(6-methylpyridin-3-yl)imidazo[1,5-a]pyridin-5-yl)piperazine-1-carboxamide] | 0.064 µM | > 10 µM | 1.1 µM | 13.4 µM | > 16.8 µM
2 | CN(C)C(=O)N1CCN(c2cc(S(=O)(=O)NC3(C)CC3)cc3c(-c4ccc(C(F)F)nc4)ncn23)CC1 [Example 3, 4-(1-(6-(difluoromethyl)pyridin-3-yl)-7-(N-(1-methylcyclopropyl)sulfamoyl)imidazo[1,5-a]pyridin-5-yl)-N,N-dimethylpiperazine-1-carboxamide] | 0.066 µM | > 10 µM | 0.218 µM | 4.47 µM | > 20 µM
3 | Cc1ccc(-c2cnn3c(N4CCN(C(=O)N(C)C)CC4)cc(S(=O)(=O)NC4(C)CC4)cc23)cn1 [Example 5, N,N-dimethyl-4-(5-(N-(1-methylcyclopropyl)sulfamoyl)-3-(6-methylpyridin-3-yl)pyrazolo[1,5-a]pyridin-7-yl)piperazine-1-carboxamide] | 0.054 µM | > 10 µM | 0.223 µM | 3.22 µM | > 20 µM
4 | CN(C)C(=O)N1CCN(c2cc(S(=O)(=O)NC3(C)CC3)cc3c(-c4ccc(C(F)F)nc4)cnn23)CC1 [Example 7, 4-(3-(6-(difluoromethyl)pyridin-3-yl)-5-(N-(1-methylcyclopropyl)sulfamoyl)pyrazolo[1,5-a]pyridin-7-yl)-N,N-dimethylpiperazine-1-carboxamide] | 0.028 µM | > 10 µM | 0.328 µM | 3.94 µM | > 20 µM
5 | COC(=O)c1cnn2c(N3CCN(C(=O)N(C)C)CC3)cc(S(=O)(=O)NC3(C)CC3)cc12 [Example 8, Methyl 7-(4-(dimethylcarbamoyl)piperazin-1-yl)-5-(N-(1-methylcyclopropyl)sulfamoyl)pyrazolo[1,5-a]pyridine-3-carboxylate] | 0.043 µM | – | – | 7.22 µM | > 20 µM
6 | CN(C)C(=O)N1CCN(c2cc(S(=O)(=O)NC3(C)CC3)cc3c(-c4nnc(C(F)F)s4)cnn23)CC1 [Example 10, 4-(3-(5-(difluoromethyl)-1,3,4-thiadiazol-2-yl)-5-(N-(1-methylcyclopropyl)sulfamoyl)pyrazolo[1,5-a]pyridin-7-yl)-N,N-dimethylpiperazine-1-carboxamide] | 0.042 µM | > 10 µM | 0.266 µM | 1.3 µM | > 20 µM
7 | CN(C)C(=O)N1CCN(c2cc(S(=O)(=O)NC3(C)CC3)cc3c(-c4nnc(C(F)F)o4)cnn23)CC1 [Example 11, 4-(3-(5-(difluoromethyl)-1,3,4-oxadiazol-2-yl)-5-(N-(1-methylcyclopropyl)sulfamoyl)pyrazolo[1,5-a]pyridin-7-yl)-N,N-dimethylpiperazine-1-carboxamide] | 0.098 µM | > 10 µM | 0.739 µM | 4.58 µM | > 20 µM
8 | Cc1nnc(-c2cnn3c(N4CCN(C(=O)N(C)C)CC4)cc(S(=O)(=O)NC4(C)CC4)cc23)s1 [Example 12, N,N-dimethyl-4-(3-(5-methyl-1,3,4-thiadiazol-2-yl)-5-(N-(1-methylcyclopropyl)sulfamoyl)pyrazolo[1,5-a]pyridin-7-yl)piperazine-1-carboxamide] | 0.038 µM | > 10 µM | 1.49 µM | 6.05 µM | > 20 µM
